The source made the active and inactive calls. For most assays here, no stated cut-off is given here; in the data, actives have a measured EC50 and inactives only a lower limit.
Columns and labels:
[1] = cells; format: functional, cell-based
[2] = cells; format: functional, cell-based; remark: listed apart in the source
[3] = system: INS1; experiment: INS-1E survival protection against cytokine death – cell-based, luminescence, retest, dose response (AID 449756); format: functional; details: Rattus norvegicus;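 further: cell death triggered by IL-1 beta plus TNF-alpha plus IFN-gamma mixture; protective hits raise ATP signal compared with cytokine alone wells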
[4] = Luminescence Cell-Based Dose Response HTS to Identify Activators of Luciferase Translation or Activity in H4 […] Cells. [Related pubchem assays: 1829 (Project Summary), 1814 (Primary HTS)]; format: functional
[5] = system: H4; experiment: Luminescence Cell-Based Dose Response HTS to Identify Activators of 5'UTR Stem-Loop Driven Prion Protein mRNA Translation in H4 Neuroglioblastoma Cells. [Related pubchem assays: 1829 (Project Summary), 1814 (Primary HTS)]; format: functional; details: Homo sapiens
[6] = Luminescence Cell-Based Dose Confirmation HTS to Identify Activators of 5'UTR Stem-Loop Driven Alpha-Synuclein mRNA Translation in H4 Neuroglioblastoma Cells. [Related pubchem assays: 1829 (Project Summary), 1814 (Primary HTS)]; format: functional
[7] = biological target: T1, Rac GTPase-activating protein 1 (Homo sapiens, UniProt Q9H0H5); experiment: blockers of MgcRacGAP-driven Rac1 GTP hydrolysis – biochemical, ADP Hunter fluorescence, primary and confirmatory, confirmation (AID 624330); format: functional
T1 sequence (Q9H0H5 whole entry): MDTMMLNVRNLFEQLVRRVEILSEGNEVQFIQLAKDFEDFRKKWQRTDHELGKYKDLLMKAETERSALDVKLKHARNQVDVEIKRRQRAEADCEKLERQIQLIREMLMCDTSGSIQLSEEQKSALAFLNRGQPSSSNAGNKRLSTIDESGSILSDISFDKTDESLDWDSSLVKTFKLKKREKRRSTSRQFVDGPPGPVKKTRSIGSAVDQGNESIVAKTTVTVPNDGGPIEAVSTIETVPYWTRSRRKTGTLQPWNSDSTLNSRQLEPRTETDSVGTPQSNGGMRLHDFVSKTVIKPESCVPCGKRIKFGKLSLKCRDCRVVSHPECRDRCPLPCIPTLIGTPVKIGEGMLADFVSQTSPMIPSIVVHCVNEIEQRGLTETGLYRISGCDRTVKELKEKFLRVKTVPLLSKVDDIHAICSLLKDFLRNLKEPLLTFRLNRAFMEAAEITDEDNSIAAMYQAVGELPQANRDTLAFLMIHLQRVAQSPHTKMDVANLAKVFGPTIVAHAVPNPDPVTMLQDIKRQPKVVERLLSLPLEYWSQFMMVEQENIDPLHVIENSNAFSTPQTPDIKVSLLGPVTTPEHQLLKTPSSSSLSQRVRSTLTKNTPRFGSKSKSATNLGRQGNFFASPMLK

[8] = biological target: T2, Replicative DNA helicase DnaB (Mycobacterium tuberculosis, UniProt P9WMR3); experiment: DnaB intein splicing inhibitors, dose response, biochemical, cell-free fluorescence (AID 449749); format: functional
T2 sequence (P9WMR3 whole entry): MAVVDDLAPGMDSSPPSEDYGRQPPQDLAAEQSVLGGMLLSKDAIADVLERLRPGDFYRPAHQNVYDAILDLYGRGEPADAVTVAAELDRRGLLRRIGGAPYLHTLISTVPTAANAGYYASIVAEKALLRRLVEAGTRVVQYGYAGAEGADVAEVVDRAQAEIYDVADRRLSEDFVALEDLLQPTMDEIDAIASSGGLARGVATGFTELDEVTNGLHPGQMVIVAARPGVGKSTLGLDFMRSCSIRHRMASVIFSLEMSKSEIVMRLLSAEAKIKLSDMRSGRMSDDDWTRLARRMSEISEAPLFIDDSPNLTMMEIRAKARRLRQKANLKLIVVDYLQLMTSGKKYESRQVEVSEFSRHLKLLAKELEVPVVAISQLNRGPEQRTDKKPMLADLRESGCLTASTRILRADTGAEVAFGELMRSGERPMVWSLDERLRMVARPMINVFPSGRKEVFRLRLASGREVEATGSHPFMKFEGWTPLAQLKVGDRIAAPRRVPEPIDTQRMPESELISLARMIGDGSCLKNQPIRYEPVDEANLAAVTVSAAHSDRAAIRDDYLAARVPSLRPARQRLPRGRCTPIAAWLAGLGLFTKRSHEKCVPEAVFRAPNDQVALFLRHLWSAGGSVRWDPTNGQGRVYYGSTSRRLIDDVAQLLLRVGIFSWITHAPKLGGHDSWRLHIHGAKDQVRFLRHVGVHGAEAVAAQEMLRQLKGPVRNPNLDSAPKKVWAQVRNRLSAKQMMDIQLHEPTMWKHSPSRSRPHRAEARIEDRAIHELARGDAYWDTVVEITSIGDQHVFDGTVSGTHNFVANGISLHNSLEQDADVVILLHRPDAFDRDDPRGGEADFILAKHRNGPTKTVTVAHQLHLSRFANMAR

[9] = biological target: T3, Protein RecA (Mycobacterium tuberculosis, UniProt P9WHJ3); experiment: Fluorescence Cell-Free Homogeneous Dose Retest to Identify Inhibitors of RecA-Intein Splicing Activity. [Related pubchem assays (depositor defined):AID2097, AID2223, AID489010, AID492950]; format: functional
T3 sequence (P9WHJ3 whole entry): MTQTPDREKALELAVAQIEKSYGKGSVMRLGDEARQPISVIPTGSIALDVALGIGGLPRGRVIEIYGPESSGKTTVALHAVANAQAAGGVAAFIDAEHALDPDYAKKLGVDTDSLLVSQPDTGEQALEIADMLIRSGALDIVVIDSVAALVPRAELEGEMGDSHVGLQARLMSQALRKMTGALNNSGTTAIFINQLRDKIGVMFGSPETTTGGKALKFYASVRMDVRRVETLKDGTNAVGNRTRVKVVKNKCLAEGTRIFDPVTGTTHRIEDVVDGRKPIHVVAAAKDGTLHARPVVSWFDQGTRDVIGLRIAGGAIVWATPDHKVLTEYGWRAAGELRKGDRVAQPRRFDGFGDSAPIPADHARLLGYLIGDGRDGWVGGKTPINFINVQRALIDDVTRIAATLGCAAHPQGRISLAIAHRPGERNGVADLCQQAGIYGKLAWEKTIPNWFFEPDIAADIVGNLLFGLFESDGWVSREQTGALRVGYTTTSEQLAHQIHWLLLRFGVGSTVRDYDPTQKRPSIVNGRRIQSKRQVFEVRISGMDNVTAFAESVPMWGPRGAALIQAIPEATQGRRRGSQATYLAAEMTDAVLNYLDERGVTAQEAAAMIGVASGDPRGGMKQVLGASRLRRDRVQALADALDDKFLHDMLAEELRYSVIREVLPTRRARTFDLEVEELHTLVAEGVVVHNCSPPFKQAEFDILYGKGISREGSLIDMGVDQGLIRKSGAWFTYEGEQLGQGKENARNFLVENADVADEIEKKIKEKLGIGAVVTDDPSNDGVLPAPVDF

[10] = NIH3T3 cell viability loss – ATP luminescence, mouse fibroblasts, counter-screen, dose response (AID 2010); format: functional, cell-based;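 further: cells exposed to compound for about 90 hours before reading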
[11] = Trypanosoma cruzi growth suppression in host cells – NIH3T3 host cells, beta-gal luminescence, confirmation (AID 2044); format: functional, cell-based;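 further: intracellular parasites grown in NIH/3T3 mouse fibroblasts as host cells; luminescent beta-galactosidase reporter signal from transgenic T. cruzi replicating inside host cells; inhibitors lower the luminescence signal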
[12] = biological target: T4, Heat shock factor protein 1 (Mus musculus, UniProt P38532); experiment: enhancement of HSF1-driven luciferase signal – cell-based, NIH3T3, luminescence, dose retest, confirmation (AID 435004); format: functional;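 further: stress induced by proteasome inhibitor MG132 added 30 min after compound; luciferase reporter driven by HSF1 response element in NIH3T3 cells; actives raise luminescence as potentiators of the MG132 stress response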
T4 sequence (P38532 whole entry): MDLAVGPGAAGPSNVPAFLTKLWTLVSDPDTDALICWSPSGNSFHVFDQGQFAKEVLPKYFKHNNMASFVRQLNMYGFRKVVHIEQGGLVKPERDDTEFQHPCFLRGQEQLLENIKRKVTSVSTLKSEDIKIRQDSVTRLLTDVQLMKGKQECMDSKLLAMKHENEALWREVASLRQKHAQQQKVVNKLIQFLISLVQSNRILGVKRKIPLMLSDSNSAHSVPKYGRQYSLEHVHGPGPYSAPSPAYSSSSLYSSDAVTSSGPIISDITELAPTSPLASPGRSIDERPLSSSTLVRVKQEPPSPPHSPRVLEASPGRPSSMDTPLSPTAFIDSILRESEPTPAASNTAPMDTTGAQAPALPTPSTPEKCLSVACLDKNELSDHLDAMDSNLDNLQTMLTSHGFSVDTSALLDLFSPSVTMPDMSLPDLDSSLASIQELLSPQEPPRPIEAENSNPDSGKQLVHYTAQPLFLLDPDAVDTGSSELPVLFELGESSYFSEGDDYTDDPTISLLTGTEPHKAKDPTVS

In the case of `Cc1ccc(-n2cc(CN3CCC(CO)(Cc4ccccc4)CC3)cn2)cc1`, the EC50 [1] was > 350 µM (not active) and the EC50 [2] was > 350 µM (not active).
For `Cc1ccc(OC(C)C(=O)N2CC(=O)Nc3ccccc32)cc1` (centres undefined), the EC50 [1] was > 350 µM (not active) and the EC50 [2] was > 350 µM (not active).
For `CCCCCn1c(=O)c(C(=O)NCc2ccccc2Cl)c(O)c2ccccc21`, the AC50 [3] was 8.04 µM (active).
For `Cc1occc1C(=O)N/N=C/c1c(O)ccc2ccccc12`, the EC50 [1] was 69 µM (active), the AC50 [3] was 1.25 µM (active) and the EC50 [2] was 9.8 µM (active).
In the case of `CCOC(=O)/C(C#N)=C1/C=CN(c2ccc(C)cc2)C=N1`, the EC50 [4] was 14.9 µM (active), the EC50 [5] was 14.8 µM (active) and the EC50 [6] was > 120 µM (not active).
For `Cc1ccc(C)c(NC(=O)c2cc3ccccn3n2)c1`, the EC50 [4] was 0.163 µM (active), the EC50 [5] was 41.1 µM (active) and the EC50 [6] was 0.765 µM (active).
With `CCCS(=O)(=O)N1CCN(Cc2ccco2)CC1` the IC50 [7] was 130 µM (active).
In the case of `O=C(CSc1nnnn1C1CC1)N1CCN(c2ccc(O)cc2)CC1`, the IC50 [7] was 30.8 µM (active).
In the case of `O=[N+]([O-])c1cccc(/C=N/n2cnnc2)c1`, the AC50 [3] was > 260 µM (inactive).
For `Oc1ccc(-c2cn3c(n2)SCC3)cc1`, the IC50 [7] was 18.9 µM (active).
In the case of `CCCc1cc2c(=O)c(-c3ccc4c(c3)OCCO4)coc2cc1OS(C)(=O)=O`, the EC50 [4] was < 0.195 µM (inconclusive), the EC50 [5] was > 120 µM (not active) and the EC50 [6] was 0.103 µM (active).
For `O=C(c1c[nH]c(C(=O)C(Cl)(Cl)Cl)c1)c1ccc(F)cc1F`, the AC50 [8] was 21.2 µM (active) and the EC50 [9] was 7.8 µM (active).
In the case of `COc1cc(NC(=O)CN2C(=O)c3ccccc3Sc3ccc(C(=O)N4CCOCC4)cc32)cc(OC)c1OC`, the EC50 [1] was > 350 µM (not active) and the EC50 [2] was > 350 µM (not active).
For `COc1ccc(NC2CCCN(C(=O)c3ccc4[nH]c(C)c(C)c4c3)C2)cc1` (centres undefined), the IC50 [7] was 81.4 µM (active).
For `CCc1ccc2nc(O)c(CN(Cc3ccccc3OC)C(=O)Nc3ccccc3OC)cc2c1`, the EC50 [10] was > 60 µM (not active), the EC50 [4] was > 120 µM (not active) and the EC50 [5] was 111 µM (active). For the same compound, the EC50 [6] was 111 µM (active) and the EC50 [11] was 3 µM (active).
With `COc1ccnc(N=CNOCc2ccc(C)cc2)c1C#N` the EC50 [4] was 12.5 µM (active), the EC50 [5] was 55.5 µM (active) and the EC50 [6] was 14.7 µM (active).
With `Cc1[nH]nc(O)c1C(c1ccc(Cl)cc1)c1c(O)n[nH]c1C` the AC50 [8] was 1.27 µM (active) and the EC50 [9] was 0.461 µM (active).
With `COC(=O)COc1c(Cl)cc(C(c2c(C)n[nH]c2O)c2c(C)n[nH]c2O)cc1OC` the AC50 [8] was 0.47 µM (active) and the EC50 [9] was 0.158 µM (active).
With `Cc1ccc(S(=O)(=O)Nc2cc(-c3ccc(Cl)cc3)nn2C)cc1` the EC50 [1] was > 350 µM (not active) and the EC50 [2] was > 350 µM (not active).
With `Cc1cccc(Nc2c(-c3ccc(O)cc3)nc3ncccn23)c1` the IC50 [7] was 32.1 µM (active).
In the case of `Cc1nnc2ccc(Oc3ccc(-c4ccccc4)cc3)nn12`, the AC50 [3] was 6.58 µM (active) and the IC50 [7] was 99.4 µM (active).
With `Cc1ccc(OCCCCNC(C)(C)C)c([N+](=O)[O-])c1` the IC50 [7] was 141 µM (active).
For `O=C(Cn1nc(-c2ccccc2Cl)ccc1=O)Nc1ccccc1-c1ccccc1`, the EC50 [1] was > 350 µM (not active), the EC50 [12] was 120 µM (active) and the EC50 [2] was > 350 µM (not active).
With `CCSc1cc(C)nc2c(-c3ccccc3)cnn12` the EC50 [1] was > 350 µM (not active) and the EC50 [2] was 23.1 µM (active).
With `Cc1ccc(COC(=O)Cc2coc3cc(O)ccc23)cc1` the IC50 [7] was 30.1 µM (active).
For `CCN1CCN(C(S)=NCC2CCCO2)CC1` (centres undefined), the IC50 [7] was 186 µM (active).
In the case of `COc1cc(C2C(C#N)=C(N)Oc3[nH]nc(-c4cccnc4)c32)ccc1OCC(N)=O` (centres undefined), the AC50 [8] was 48.5 µM (active) and the EC50 [9] was 3.16 µM (active).
In the case of `C(/CCc1ccccc1)=N\Nc1nc2ccccc2[nH]1`, the EC50 [1] was 92.2 µM (active), the AC50 [3] was 5.2 µM (active) and the EC50 [2] was 35.8 µM (active).
For `CC(=O)n1c2c(c3ccccc31)OC(N)=C(C#N)C2c1ccc(C(C)C)cc1` (centres undefined), the EC50 [4] was 10 µM (active), the EC50 [5] was 16.2 µM (active) and the EC50 [6] was 11.7 µM (active).
